This is an account of results in patent publication US6339045B1, “N-(unsubstituted or substituted)-4-substituted-6-(unsubstituted or substituted)phenoxy-2-pyridinecarboxamides or thiocarboxamides, processes for producing the same, and herbicides” (Kureha Kagaku Kogyo Kabushiki Kaisha, priority 1995, dated 2002).

Holding throughout (test): Herbicidal effect by foliage and soil treatment
Common to all, as to type: in vivo
Holding throughout (details): 10 g ai/10a, evaluated after 14 days

Experiment [1] concerns wild chamomile (Matricaria chamomilla). In short, it runs like this: (§1)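 Potted seedlings at cotyledon-to-bifoliate stage were sprayed with compound in Tween 20/water at a predetermined rate and grown in a greenhouse at 19 to 25° C. Growth was rated against untreated plants after 14 days.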
Experiment [2] deals with black nightshade (Solanum nigrum). In short, it runs like this: as §1
In experiment [3] the test system is kediock (Sinapis arvensis). In short, it runs like this: as §1
Experiment [4] relates to cleavers (Galium aparine). An outline of the steps:
as §1

The test system of experiment [5] is common blackjack (Bidens pilosa). In short, it runs like this:
as §1

Experiment [6] concerns velvetleaf (Abutilon theophrasti). An outline of the steps:
as §1

Experiment [7] relates to redroot pigweed (Amaranthus retroflexus). In short, it runs like this: as §1
Experiment [8] deals with field bindweed (Convolvulus arvensis). In short, it runs like this: as §1
Experiment [9] has as its system ivyleafspeedwell (Veronica hederaefolia). In short, it runs like this: as §1
Experiment [10] relates to common chickweed (Stellaria media). An outline of the steps: as §1
Experiment [11] concerns sicklepod (Cassia obtusifolia). An outline of the steps: as §1

For the molecule `COc1cc(Oc2cccc(C(F)(F)F)c2)nc(C(=O)NCCC#N)c1` [Compound I-71], in experiment [1], the “herbicidal activity rating, MC (Matricaria chamomilla)” value (shortened to “herbicidal activity rating, MC”) was 4 (percentage of weeds killed was not less than 60% and less than 80%). For the same molecule, the “herbicidal activity rating, SN (Solanum nigrum)” value (“herbicidal activity rating, SN” below) in [2] is 5 (percentage of weeds killed was not less than 80%). The “herbicidal activity rating, SA (Sinapis arvensis)” value (“herbicidal activity rating, SA” below) in [3] is 5 (percentage of weeds killed was not less than 80%). The “herbicidal activity rating, GA (Galium aparine)” value (“herbicidal activity rating, GA” below) in experiment [4] is on record as 5 (percentage of weeds killed was not less than 80%). Moreover, the “herbicidal activity rating, BP (Bidens pilosa)” value (“herbicidal activity rating, BP” below) in [5] is recorded as 5 (percentage of weeds killed was not less than 80%). Further, the “herbicidal activity rating, AT (Abutilon theophrasti)” value in experiment [6] is 4 (percentage of weeds killed was not less than 60% and less than 80%). Also, the “herbicidal activity rating, AR (Amaranthus retroflexus)” value (from here on “herbicidal activity rating, AR”) in [7] is on record as 5 (percentage of weeds killed was not less than 80%). Moreover, in experiment [8], the “herbicidal activity rating, CA (Convolvulus arvensis)” value (“herbicidal activity rating, CA” for short) is given as 5 (percentage of weeds killed was not less than 80%). Further, in [9], the “herbicidal activity rating, VH (Veronica hederaefolia)” value (“herbicidal activity rating, VH” for short) is given as 5 (percentage of weeds killed was not less than 80%). In experiment [10], the “herbicidal activity rating, SM (Stellaria media)” value (shortened to “herbicidal activity rating, SM”) was 5 (percentage of weeds killed was not less than 80%). Besides, the “herbicidal activity rating, CO (Cassia obtusifolia)” value (“herbicidal activity rating, CO” below) in [11] is listed as 5 (percentage of weeds killed was not less than 80%).
Take `COc1cc(Oc2cccc(C(F)(F)F)c2)nc(C(=O)NCC(C)C)c1` [Compound I-72]: the “herbicidal activity rating, MC” value in [1] was 5 (percentage of weeds killed was not less than 80%). The “herbicidal activity rating, SN” value in experiment [2] is 5 (percentage of weeds killed was not less than 80%). For the same molecule, the “herbicidal activity rating, SA” value in experiment [3] is 5 (percentage of weeds killed was not less than 80%). Besides, in [4], the “herbicidal activity rating, GA” value was 5 (percentage of weeds killed was not less than 80%). Also, the “herbicidal activity rating, BP” value in experiment [5] is 5 (percentage of weeds killed was not less than 80%). Besides, in experiment [6], the “herbicidal activity rating, AT (Abutilon theophrasti)” value was 4 (percentage of weeds killed was not less than 60% and less than 80%). The “herbicidal activity rating, AR” value in [7] was 5 (percentage of weeds killed was not less than 80%). In experiment [8], the “herbicidal activity rating, CA” value is listed as 5 (percentage of weeds killed was not less than 80%). Also, in experiment [9], the “herbicidal activity rating, VH” value is on record as 5 (percentage of weeds killed was not less than 80%). In addition, in [10], the “herbicidal activity rating, SM” value was 5 (percentage of weeds killed was not less than 80%). For the same molecule, the “herbicidal activity rating, CO” value in experiment [11] is 5 (percentage of weeds killed was not less than 80%).
Consider `CCC(C)NC(=O)c1cc(OC)cc(Oc2cccc(C(F)(F)F)c2)n1` (centres unmarked) [Compound I-73], for which the “herbicidal activity rating, MC” value in experiment [1] was 4 (percentage of weeds killed was not less than 60% and less than 80%). In [2], the “herbicidal activity rating, SN” value was 5 (percentage of weeds killed was not less than 80%). For the same molecule, the “herbicidal activity rating, SA” value in [3] is reported as 5 (percentage of weeds killed was not less than 80%). Also, the “herbicidal activity rating, GA” value in experiment [4] was 5 (percentage of weeds killed was not less than 80%). Besides, in experiment [5], the “herbicidal activity rating, BP” value was 4 (percentage of weeds killed was not less than 60% and less than 80%). Moreover, the “herbicidal activity rating, AT (Abutilon theophrasti)” value in experiment [6] was 5 (percentage of weeds killed was not less than 80%). Besides, in experiment [7], the “herbicidal activity rating, AR” value is reported as 5 (percentage of weeds killed was not less than 80%). Moreover, the “herbicidal activity rating, CA” value in experiment [8] was 5 (percentage of weeds killed was not less than 80%). In addition, the “herbicidal activity rating, VH” value in experiment [9] is on record as 5 (percentage of weeds killed was not less than 80%). In addition, in experiment [10], the “herbicidal activity rating, SM” value is 5 (percentage of weeds killed was not less than 80%). Further, the “herbicidal activity rating, CO” value in experiment [11] was 5 (percentage of weeds killed was not less than 80%).
As for `COc1cc(Oc2cccc(C(F)(F)F)c2)nc(C(=O)NCCF)c1` [Compound I-74], the “herbicidal activity rating, MC” value in experiment [1] is given as 5 (percentage of weeds killed was not less than 80%). Moreover, the “herbicidal activity rating, SN” value in [2] is recorded as 5 (percentage of weeds killed was not less than 80%). Also, the “herbicidal activity rating, SA” value in experiment [3] is recorded as 5 (percentage of weeds killed was not less than 80%). Besides, the “herbicidal activity rating, GA” value in experiment [4] was 5 (percentage of weeds killed was not less than 80%). The “herbicidal activity rating, BP” value in experiment [5] is recorded as 5 (percentage of weeds killed was not less than 80%). In addition, the “herbicidal activity rating, AT (Abutilon theophrasti)” value in [6] was 5 (percentage of weeds killed was not less than 80%). Further, the “herbicidal activity rating, AR” value in experiment [7] is recorded as 5 (percentage of weeds killed was not less than 80%). For the same molecule, the “herbicidal activity rating, CA” value in experiment [8] is listed as 5 (percentage of weeds killed was not less than 80%). For the same molecule, the “herbicidal activity rating, VH” value in experiment [9] is reported as 5 (percentage of weeds killed was not less than 80%). Also, in [10], the “herbicidal activity rating, SM” value is reported as 5 (percentage of weeds killed was not less than 80%). Moreover, in [11], the “herbicidal activity rating, CO” value is 5 (percentage of weeds killed was not less than 80%).
Turning to `COCCCNC(=O)c1cc(OC)cc(Oc2cccc(C(F)(F)F)c2)n1` [Compound I-75], the “herbicidal activity rating, MC” value in experiment [1] is 4 (percentage of weeds killed was not less than 60% and less than 80%). For the same molecule, in [2], the “herbicidal activity rating, SN” value is 5 (percentage of weeds killed was not less than 80%). Also, the “herbicidal activity rating, SA” value in experiment [3] is reported as 5 (percentage of weeds killed was not less than 80%). In experiment [4], the “herbicidal activity rating, GA” value was 5 (percentage of weeds killed was not less than 80%). The “herbicidal activity rating, BP” value in experiment [5] is 3 (percentage of weeds killed was not less than 40% and less than 60%). In experiment [6], the “herbicidal activity rating, AT (Abutilon theophrasti)” value was 3 (percentage of weeds killed was not less than 40% and less than 60%). Moreover, in [7], the “herbicidal activity rating, AR” value is 5 (percentage of weeds killed was not less than 80%). Further, in experiment [8], the “herbicidal activity rating, CA” value was 4 (percentage of weeds killed was not less than 60% and less than 80%). For the same molecule, the “herbicidal activity rating, VH” value in experiment [9] was 5 (percentage of weeds killed was not less than 80%). Also, the “herbicidal activity rating, SM” value in [10] is 5 (percentage of weeds killed was not less than 80%). Further, the “herbicidal activity rating, CO” value in experiment [11] was 5 (percentage of weeds killed was not less than 80%).
As for `COc1cc(Oc2cccc(C(F)(F)F)c2)nc(C(=O)NCCCSC)c1` [Compound I-76], the “herbicidal activity rating, MC” value in experiment [1] is 5 (percentage of weeds killed was not less than 80%). Further, the “herbicidal activity rating, SN” value in experiment [2] is on record as 5 (percentage of weeds killed was not less than 80%). For the same molecule, the “herbicidal activity rating, SA” value in experiment [3] was 5 (percentage of weeds killed was not less than 80%). In addition, in [4], the “herbicidal activity rating, GA” value is reported as 5 (percentage of weeds killed was not less than 80%). The “herbicidal activity rating, BP” value in experiment [5] was 4 (percentage of weeds killed was not less than 60% and less than 80%). In experiment [6], the “herbicidal activity rating, AT (Abutilon theophrasti)” value was 3 (percentage of weeds killed was not less than 40% and less than 60%). Moreover, the “herbicidal activity rating, AR” value in experiment [7] was 5 (percentage of weeds killed was not less than 80%). Besides, the “herbicidal activity rating, CA” value in experiment [8] is 3 (percentage of weeds killed was not less than 40% and less than 60%). Besides, the “herbicidal activity rating, VH” value in [9] was 5 (percentage of weeds killed was not less than 80%). Besides, in experiment [10], the “herbicidal activity rating, SM” value is 4 (percentage of weeds killed was not less than 60% and less than 80%). The “herbicidal activity rating, CO” value in experiment [11] is reported as 5 (percentage of weeds killed was not less than 80%).
As for `COc1cc(Oc2cccc(C(F)(F)F)c2)nc(C(=O)NCCCS(C)(=O)=O)c1` [Compound I-77], the “herbicidal activity rating, MC” value in [1] was 3 (percentage of weeds killed was not less than 40% and less than 60%). The “herbicidal activity rating, SN” value in experiment [2] is on record as 5 (percentage of weeds killed was not less than 80%). Moreover, the “herbicidal activity rating, SA” value in [3] is on record as 5 (percentage of weeds killed was not less than 80%). Besides, the “herbicidal activity rating, GA” value in experiment [4] is recorded as 5 (percentage of weeds killed was not less than 80%). Besides, the “herbicidal activity rating, BP” value in experiment [5] is 4 (percentage of weeds killed was not less than 60% and less than 80%). Besides, the “herbicidal activity rating, AT (Abutilon theophrasti)” value in [6] is given as 5 (percentage of weeds killed was not less than 80%). In addition, the “herbicidal activity rating, AR” value in experiment [7] is recorded as 5 (percentage of weeds killed was not less than 80%). The “herbicidal activity rating, CA” value in [8] was 4 (percentage of weeds killed was not less than 60% and less than 80%). Further, the “herbicidal activity rating, VH” value in experiment [9] is listed as 5 (percentage of weeds killed was not less than 80%). Also, the “herbicidal activity rating, SM” value in [10] is 4 (percentage of weeds killed was not less than 60% and less than 80%). For the same molecule, in experiment [11], the “herbicidal activity rating, CO” value was 5 (percentage of weeds killed was not less than 80%).
